This passage reports Ratio and Stability results from ChEMBL document CHEMBL4270619, “Mycobacterial siderophore: A review on chemistry and biology of siderophore and its potential as a target for tuberculosis” (Eur J Med Chem, 2018).

The nature of data set [1]: Efflux ratio of apparent permeability from basolateral to apical over apical to basolateral side in human Caco2 cells. It counts as ADME, cell-based. The following applies: caco-2. In general terms: Passage across Caco-2 layers is used to estimate intestinal permeability.
Data set [2] is described as follows: Stability in rat plasma. It counts as ADME, cell-free.
Data set [3] can be described thus: Stability in human plasma. The class given is ADME, cell-free.

Consider `CC(=O)O[C@H]1[C@@H](F)[C@H](n2cnc3c(N)ncnc32)O[C@@H]1COS(=O)(=O)NC(=O)c1ccccc1O.CCN(CC)CC`, for which, in data set [1], the Ratio was in the range of 1.5 to 8.5.
Consider `CCCC(=O)O[C@H]1[C@@H](F)[C@H](n2cnc3c(N)ncnc32)O[C@@H]1COS(=O)(=O)NC(=O)c1ccccc1O.CCN(CC)CC`, for which the Ratio in data set [1] was 1.5 to 8.5.
As for `CCCCC(=O)O[C@H]1[C@@H](F)[C@H](n2cnc3c(N)ncnc32)O[C@@H]1COS(=O)(=O)NC(=O)c1ccccc1O.CCN(CC)CC`, the Ratio in data set [1] was 1.5 to 8.5.
`CC(C)C(=O)O[C@H]1[C@@H](F)[C@H](n2cnc3c(N)ncnc32)O[C@@H]1COS(=O)(=O)NC(=O)c1ccccc1O.CCN(CC)CC`: the Ratio in data set [1] lay in the range of 1.5 to 8.5.
With `CCC(=O)O[C@H]1[C@@H](F)[C@H](n2cnc3c(N)ncnc32)O[C@@H]1COS(=O)(=O)NC(=O)c1ccccc1O.CCN(CC)CC`, in data set [1], the Ratio was 1.5 to 8.5.
Consider `CCC(CC)C(=O)O[C@H]1[C@@H](F)[C@H](n2cnc3c(N)ncnc32)O[C@@H]1COS(=O)(=O)NC(=O)c1ccccc1O.CCN(CC)CC`, for which the Ratio in data set [1] was 1.5 to 8.5.
Take `CCCCCCCCCCCC(=O)O[C@H]1[C@@H](F)[C@H](n2cnc3c(N)ncnc32)O[C@@H]1COS(=O)(=O)NC(=O)c1ccccc1O.CCN(CC)CC`: in data set [1], the Ratio lay within 1.5 to 8.5.
As for `CCCCCCCC(=O)O[C@H]1[C@@H](F)[C@H](n2cnc3c(N)ncnc32)O[C@@H]1COS(=O)(=O)NC(=O)c1ccccc1O.CCN(CC)CC`, in data set [1], the Ratio lay in the range of 1.5 to 8.5.
On to `CCN(CC)CC.Nc1ncnc2c1ncn2[C@@H]1O[C@H](COS(=O)(=O)NC(=O)c2ccccc2O)[C@@H](O)[C@H]1O`, for which the Stability in data set [2] and in data set [3] was 100% throughout.
